Assay results taken from patent publication US8309584B2, “Sulfur containing pyrazole-heterocycle derivatives as cannabinoid CB1 receptor antagonists” (Green Cross Corporation, priority 2008, dated 2012).

Target: T1, rat CB-1 receptor (Rattus norvegicus, UniProt P20272)
T1 construct: The tissue obtained from the brain of SD rats was homogenized; from tissue; host or cells: SD rat brain membrane homogenate
Assay: rat cannabinoid-1 receptor (CB1R) binding affinity assay
Conditions: not given
Experimental: The tissue obtained from the brain of SD rats was homogenized with a Dounce homogenate system in TME(50 mM Tris, 3 mM MgCl2 and 1 mM EDTA, pH 7.4) at 4° C., and the homogenate was centrifuged at 48,000 g for 30 min. at 4° C. The pellet was resuspended in 5 ml of TME and the suspension was divided into aliquots and stored at −70° C. until its use in the following assay.
The tissue concentrations were determined by Bradford protein analysis, and 148 μl of brain tissue of the required concentration was added to the plate. The plate was covered and placed in a 30° C. incubator for 60 min, and then transformed on GF/B filtermat pretreated in polyethylenimine (PEI) using a cell harvester. Each filter was washed five times and dried at 60° C. for 1 hr. Then, the degree of radioactivity retained by the filter was measured using Wallac Microbeta™ (PerkinElmer Life Sciences, Inc., Massachusetts, U.S.A.) and the activity of the compound for inhibiting CB1 receptor was determined therefrom.

T1 sequence (P20272 whole entry): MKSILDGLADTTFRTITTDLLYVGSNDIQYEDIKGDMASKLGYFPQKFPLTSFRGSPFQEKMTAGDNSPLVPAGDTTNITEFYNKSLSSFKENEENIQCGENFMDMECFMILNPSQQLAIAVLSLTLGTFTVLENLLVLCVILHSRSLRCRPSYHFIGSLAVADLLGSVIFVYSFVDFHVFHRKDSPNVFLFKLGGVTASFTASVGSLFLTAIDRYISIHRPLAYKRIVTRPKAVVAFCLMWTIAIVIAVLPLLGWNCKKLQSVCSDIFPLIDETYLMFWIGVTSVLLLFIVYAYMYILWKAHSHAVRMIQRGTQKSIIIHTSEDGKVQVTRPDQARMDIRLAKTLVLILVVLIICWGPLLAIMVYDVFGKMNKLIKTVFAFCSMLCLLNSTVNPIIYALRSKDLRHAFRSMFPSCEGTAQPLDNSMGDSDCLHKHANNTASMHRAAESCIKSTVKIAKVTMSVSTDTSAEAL

SMILES	IC50 [nM]
CSc1c(-c2nnc(C3(c4ccc(Cl)cc4)CC3)s2)nn(-c2ccc(Cl)cc2Cl)c1-c1ccc(Cl)cc1 [Example 24, 2-(5-(4-chlorophenyl)-1-(2,4-dichlorophenyl)-4-(methylthio)-1H-pyrazol-3-yl)-5-(1-(4-chlorophenyl)cyclopropyl)-1,3,4-thiadiazole]	6.66

Same assay, conditions: [3H]CP-55940 radioligand, SD rat brain tissue homogenate, 30° C., 60 min; read-out: IC50

SMILES	IC50 [nM]
C[S+]([O-])c1c(-c2nnc(C3(C(F)(F)F)CC3)s2)nn(-c2ccccc2Cl)c1-c1ccc(Br)cc1 (stereo not shown) [Example 73, 2-(5-(4-bromophenyl)-1-(2-chlorophenyl)-4-(methylsulfinyl)-1H-pyrazol-3-yl)-5-(1-(trifluoromethyl)cyclopropyl)-1,3,4-thiadiazole]	6.08
C[S+]([O-])c1c(-c2nnc(C3(C(F)(F)F)CCC3)o2)nn(-c2ccc(Cl)cc2Cl)c1-c1ccc(Cl)cc1 (stereo not shown) [Example 43, 2-(5-(4-chlorophenyl)-1-(2,4-dichlorophenyl)-4-(methylsulfinyl)-1H-pyrazol-3-yl)-5-(1-(trifluoromethyl)cyclobutyl)-1,3,4-oxadiazole]	8.92
CSc1c(-c2nnc(C3(c4ccc(Cl)cc4)CC3)o2)nn(-c2ccc(Cl)cc2Cl)c1-c1ccc(Cl)cc1 [Example 4, 2-(5-(4-chlorophenyl)-1-(2,4-dichlorophenyl)-4-(methylthio)-1H-pyrazol-3-yl)-5-(1-(4-chlorophenyl)cyclopropyl)-1,3,4-oxadiazole]	5.26
CC(C)(C)c1nnc(-c2nn(-c3ccc(Cl)cc3Cl)c(-c3ccc(Cl)cc3)c2S(C)(=O)=O)s1 [Example 100, 2-tert-butyl-5-(5-(4-chlorophenyl)-1-(2,4-dichlorophenyl)-4-(methylsulfonyl)-1H-pyrazol-3-yl)-1,3,4-thiadiazole]	5.84
C[S+]([O-])c1c(-c2nnc(C(C)(C)C)s2)nn(-c2ccc(Cl)cc2Cl)c1-c1ccc(Cl)cc1 (stereo not shown) [Example 60, 2-tert-butyl-5-(5-(4-chlorophenyl)-1-(2,4-dichlorophenyl)-4-(methylsulfinyl)-1H-pyrazol-3-yl)-1,3,4-thiadiazole]	19.1
C[S+]([O-])c1c(-c2nnc(C(C)(C)C)s2)nn(-c2ccccc2Cl)c1-c1ccc(Br)cc1 (stereo not shown) [Example 72, 2-(5-(4-bromophenyl)-1-(2-chlorophenyl)-4-(methylsulfinyl)-1H-pyrazol-3-yl)-5-tert-butyl-1,3,4-thiadiazole]	7.97
C[S+]([O-])c1c(-c2nnc(C3(C(F)(F)F)CC3)o2)nn(-c2ccc(Cl)cc2Cl)c1-c1ccc(Cl)cc1 (stereo not shown) [Example 42, 2-(5-(4-chlorophenyl)-1-(2,4-dichlorophenyl)-4-(methylsulfinyl)-1H-pyrazol-3-yl)-5-(1-(trifluoromethyl)cyclopropyl)-1,3,4-oxadiazole]	24.6
CC(C)(C)c1nnc(-c2nn(-c3ccc(Cl)cc3Cl)c(-c3ccc(Cl)cc3)c2S(C)(=O)=O)o1 [Example 80, 2-tert-butyl-5-(5-(4-chlorophenyl)-1-(2,4-dichlorophenyl)-4-(methylsulfonyl)-1H-pyrazol-3-yl)-1,3,4-oxadiazole]	15.2
CS(=O)(=O)c1c(-c2nnc(C3(C(F)(F)F)CCC3)o2)nn(-c2ccc(Cl)cc2Cl)c1-c1ccc(Br)cc1 [Example 90, 2-(5-(4-bromophenyl)-1-(2,4-dichlorophenyl)-4-(methylsulfonyl)-1H-pyrazol-3-yl)-5-(1-(trifluoromethyl)cyclobutyl)-1,3,4-oxadiazole]	7.34
CCS(=O)(=O)c1c(-c2nnc(C3(c4ccc(Cl)cc4)CC3)s2)nn(-c2ccc(Cl)cc2Cl)c1-c1ccc(Cl)cc1 [Example 119, 2-(5-(4-chlorophenyl)-1-(2,4-dichlorophenyl)-4-(ethylsulfonyl)-1H-pyrazol-3-yl)-5-(1-(4-chlorophenyl)cyclopropyl)-1,3,4-thiadiazole]	2.06
CS(=O)(=O)c1c(-c2nnc(C3(c4ccc(Cl)cc4)CC3)s2)nn(-c2ccc(Cl)cc2Cl)c1-c1ccc(Cl)cc1 [Example 103, 2-(5-(4-chlorophenyl)-1-(2,4-dichlorophenyl)-4-(methylsulfonyl)-1H-pyrazol-3-yl)-5-(1-(4-chlorophenyl)cyclopropyl)-1,3,4-thiadiazole]	4.34
CS(=O)(=O)c1c(-c2nnc(C3(C(F)(F)F)CC3)o2)nn(-c2ccc(Cl)cc2Cl)c1-c1ccc(Cl)cc1 [Example 81, 2-(5-(4-chlorophenyl)-1-(2,4-dichlorophenyl)-4-(methylsulfonyl)-1H-pyrazol-3-yl)-5-(1-(trifluoromethyl)cyclopropyl)-1,3,4-oxadiazole]	6.31
